In patent US10953032B2, “Cyclic dinucleotides as anticancer agents” (BRISTOL-MYERS SQUIBB COMPANY, priority 2017, dated 2021):
Where two headings read alike, the source gives them in different places.

What was measured:
NFkB = experiment: STING THP1 Reporter Assay, NF-κB pathway (SEAP); assay type: cell-based; conditions: THP1-Dual cells, 10% human plasma, SEAP readout (OD620), 100% activation = 100 μM cGAMP, read-out: THP1 Reporter Assays EC50 (μM) NFkB
Description: (§1) THP1-Dual™ cells were derived from the human THP-1 monocyte cell line by stable integration of two inducible reporter constructs. To this end, THP1-Dual™ cells allow the simultaneous study of the NF-κB pathway, by monitoring the activity of SEAP, and the IRF pathway by assessing the activity of a secreted luciferase (Lucia). Both reporter proteins are readily measurable in the cell culture supernatant when using QUANTI-Blue™, a SEAP detection reagent, and QUANTI-Luc™, a luciferase detection reagent.
(§2) THP 1-Dual™ cells induce the activation of NF-κB in response to STING agonists. They also trigger the IRF pathway upon stimulation with STING agonists, such as cGAMP. Here, the THP-1-Dual cells were used to assess STING binders for function on the cellular level.
(§3) Serial dilutions of compounds in DMSO were added to low volume 384 well plates at 100 nl/well using an ECHO acoustic dispenser (Labcyte, model 550) to achieve final starting concentration of 100 μM in cell suspension. THP-1 Dual™ STING reporter cells (Invivogen, Dual cells cat #THPD-nfis) were added to the plates with compounds at 15,000 cells in 10 μL per well in RPMI media (Gibco, cat #11875) containing 10% human plasma in a low volume 384-well black wall clear bottom tissue culture plate (Corning, cat #3542) for SEAP assay and low volume solid white plate (Corning, cat #3826) for luciferase assay. One column of the plate was reserved for treatment with cGAMP at 100 μM for 100% activation calculation and one column for no treatment (DMSO only) for baseline activation. Plates were then incubated in 37° C. incubator at 5% CO2 for 20 hours.
(§4) In the SEAP assay, […] 2× QuantiBlue (Invivogen, cat #Rep-qb2) is added to 384 well black plates seeded with THP1 cells and incubated at 37° C. for 2 hours. Plates were read on the Envision (Perkin Elmer) at 620 nm wavelength (OD620). In the luciferase assay, 5 μl of Quantiluc (Invivogen, Rep-qlc2) is added to white 384 well plates seeded with THP1 cells and read at 5 minutes on the Envision (Perkin Elmer) using a luminescence protocol (RLU). For both cell lines, 100% activation was determined by value (RLU) of THP-1 Dual STING cells stimulated with 100 μM cGAMP (Invivogen, cat #TLRL-NACGA23-5).

IRF3 = experiment: STING THP1 Reporter Assay, IRF pathway (secreted Lucia luciferase); assay type: cell-based; conditions: THP1-Dual cells, 10% human plasma, luciferase readout, 100% activation = 100 μM cGAMP, read-out: THP1 Reporter Assays EC50 (μM) IRF3
Description: as §1, §2, §3, §4

[1] = biological target: T1, STING WT: His-TVMV-S-hSTING(155-341)-H232R (Homo sapiens, UniProt Q86WV6, H232R); experiment: STING HTRF Binding Assay (time resolved FRET competition), STING WT; conditions: 20 nM His-tagged STING cytoplasmic domain WT, 200 nM fluorescein-labeled cGAMP analog probe, one hour; read-out: HTRF Binding Assays EC50 (μM) STING WT
T1 construct: STING WT: His-TVMV-S-hSTING(155-341)-H232R
T1 sequence (Q86WV6 with tags, fused parts or gaps H232R): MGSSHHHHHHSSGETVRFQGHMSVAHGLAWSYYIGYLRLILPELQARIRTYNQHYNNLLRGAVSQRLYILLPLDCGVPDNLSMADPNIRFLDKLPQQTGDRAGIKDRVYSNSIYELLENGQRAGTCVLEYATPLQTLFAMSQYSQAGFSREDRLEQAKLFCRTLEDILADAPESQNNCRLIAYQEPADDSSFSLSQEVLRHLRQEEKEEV
Protocol: (§5) A time resolved FRET-based competition binding assay was used to assess test article binding to STING WT and STING AQ. His-tagged STING cytoplasmic domain (WT or AQ) at a concentration of 20 nM was incubated with 2.5 nM Tb-labeled anti-His antibody, test compound, and fluorescein-labeled cGAMP analog probe (BioLog cat. no. C195) at a concentration of 200 nM (STING WT) or 40 nM (STING AQ) in PBS containing 0.005% Tween-20 and 0.1% BSA for one hour. Fluorescence at 495 nm and 520 nm was measured using an EnVision microplate reader to quantify FRET between Tb-labeled anti-His antibody and fluorescein-labeled probe. Background was defined as the signal obtained in the absence of STING protein, and background subtracted FRET ratios were normalized to the maximum signal obtained in the absence of test compound. These values were converted to a percent inhibition. Percent inhibition was determined for test compounds at 11 concentrations. The IC50, defined as the concentration of competing test compound needed to reduce specific binding of the probe by 50%, was calculated using the 4 parameter logistic equation to fit the data

[2] = biological target: T2, STING AQ: His-TVMV-S-hSTING(155-341)-G230A-R293Q (Homo sapiens, UniProt Q86WV6, G230A/H232R/R293Q); experiment: STING HTRF Binding Assay (time resolved FRET competition), STING AQ; conditions: 20 nM His-tagged STING cytoplasmic domain AQ, 40 nM fluorescein-labeled cGAMP analog probe, one hour; read-out: HTRF Binding Assays EC50 (μM) STING AQ
T2 construct: STING AQ: His-TVMV-S-hSTING(155-341)-G230A-R293Q
T2 sequence (Q86WV6 with tags, fused parts or gaps G230A/H232R/R293Q): as the sequence (Q86WV6 with tags, fused parts or gaps H232R) above, with G99A, R162Q counted along it
Protocol: as §5

| SMILES | EC50 (NFkB; 20 hours) | EC50 (IRF3; 20 hours) | EC50 [1] | EC50 [2] | EC50 (NFkB; Homo sapiens, THP-1, 20 h) | EC50 (IRF3; Homo sapiens, THP-1, 20 h) |
| --- | --- | --- | --- | --- | --- | --- |
| Nc1ncnc2c1ncn2[C@@H]1O[C@@H]2COP(=O)(S)O[C@@H]3[C@H](O)[C@@H](COP(=O)(S)O[C@H]2[C@H]1F)O[C@H]3n1cnc2c(=O)[nH]c3nccn3c21 (single isomer, unassigned) [Example 1-2] | 21 µM | 10 µM | 0.02 µM | 0.004 µM | – | – |
| Nc1ncnc2c1ncn2[C@@H]1O[C@@H]2COP(=O)(S)O[C@@H]3[C@H](O)[C@@H](COP(=O)(S)O[C@H]2[C@H]1F)O[C@H]3n1cnc2c(=O)[nH]c3nccn3c21 (single isomer, unassigned) [Example 1-3] | 27 µM | 12 µM | 0.03 µM | 0.006 µM | – | – |
| Nc1ncnc2c1ncn2[C@@H]1O[C@@H]2COP(=O)(S)O[C@@H]3[C@H](O)[C@@H](COP(=O)(S)O[C@H]2[C@H]1F)O[C@H]3n1cnc2c(=O)[nH]c3nccn3c21 (single isomer, unassigned) [Example 1-4] | 3 µM | 1 µM | 0.003 µM | < 0.001 µM | – | – |
| Nc1ncnc2c1ncn2[C@@H]1O[C@@H]2COP(=O)(S)O[C@@H]3[C@H](O)[C@@H](COP(=O)(S)O[C@H]2[C@H]1F)O[C@H]3n1cnc2c(=O)[nH]c3nccn3c21 (single isomer, unassigned) [Example 1-1] | > 100 µM | > 100 µM | 0.19 µM | 0.07 µM | – | – |
| Nc1ncnc2c1ncn2[C@@H]1O[C@@H]2COP(=O)(O)O[C@@H]3[C@H](O)[C@@H](COP(=O)(O)O[C@H]2[C@H]1N)O[C@H]3n1cnc2c(=O)[nH]c3nccn3c21 [Example 3, (1R,6R,8R,9R,10S,15R,17R,18R)-9-amino-8-(6-amino-9H-purin-9-yl)-3,12,18-trihydroxy-17-{4-oxo-1H,4H,5H-imidazo[2,1-b]purin-1-yl}-2,4,7,11,13,16-hexaoxa-3λ^5,12λ^5-diphosphatricyclo[13.2.1.0^6,10]octadecane-3,12-dione] | – | – | 1.6 µM | 0.3 µM | > 100 µM | > 100 µM |
| Nc1ncnc2c1ncn2[C@@H]1O[C@@H]2COP(=O)(O)O[C@@H]3[C@H](O)[C@@H](COP(=O)(O)O[C@H]2[C@H]1F)O[C@H]3n1cnc2c(=O)[nH]c3nccn3c21 [Example 2, (1R,6R,8R,9R,10R,15R,17R,18R)-8-(6-amino-9H-purin-9-yl)-9-fluoro-3,12,18-trihydroxy-17-{4-oxo-1H,4H,5H-imidazo[2,1-b]purin-1-yl}-2,4,7,11,13,16-hexaoxa-3λ^5,12λ^5-diphosphatricyclo[13.2.1.0^6,10]octadecane-3,12-dione] | – | – | 0.03 µM | 0.002 µM | 59 µM | 23 µM |
